# According to publication PMC6814295 (Insect biochemistry and molecular biology, 2018):
# Columns and labels:
# [1] = target: AaPK1 (Aedes aegypti pyruvate kinase 1) (Aedes aegypti, UniProt Q16F38); test: LDH-coupled NADH oxidation at […] nm, PEP varied; type: biochemical; details: 1 mM effector, 2 mM ADP, 20 mM MgCl2, 50 mM KCl, pH 7.5, 25 °C
# [2] = target: Aedes aegypti pyruvate kinase 1 (Aedes aegypti); test: crystal structure
Molecule,"LDH-coupled NADH oxidation at 340 nm, PEP varied ([1]; allosteric activator)",further results
"O=P(O)(O)OCC1(O)O[C@H](CO)[C@@H](O)[C@@H]1O (stereo partly shown) [F1P, fructose-1-phosphate]",our results indicate that F1P is an allosteric activator,–
"O=C(CO)[C@H](O)[C@H](O)COP(=O)(O)O [R5P, ribulose-5-phosphate]",–,"LDH-coupled NADH oxidation at 340 nm, PEP varied ([1]; allosteric inhibitor): while R5P is an allosteric inhibitor of AaPK1"
C[C@H](N)C(=O)O [alanine],"AaPK1 is regulated by alanine, glutamine, proline, and serine in a classic allosteric fashion",–
NC(=O)CC[C@H](N)C(=O)O [glutamine],"AaPK1 is regulated by alanine, glutamine, proline, and serine in a classic allosteric fashion",–
O=C(O)[C@@H]1CCCN1 [proline],"AaPK1 is regulated by alanine, glutamine, proline, and serine in a classic allosteric fashion",–
N[C@@H](CO)C(=O)O [serine],"AaPK1 is regulated by alanine, glutamine, proline, and serine in a classic allosteric fashion",–
Aedes aegypti pyruvate kinase 1 (enzyme),–,stoichiometry N [2]: 4
